Melting point, inhibition and IC50 data for one compound are collected here from patent US9421209B2, “Kinase modulators” (Rhizen Pharmaceuticals SA, priority 2009, dated 2016).

SMILES strings stand for the structures.

Data set [1] deals with P110α (Homo sapiens, UniProt P42336). Description: Fluorescent (HTRF) determination of PI3K enzyme activity, α isoform. In kind it is biochemical. Summed up:
(§1)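 Recombinant human PI3K isoforms incubated 10 min at room temperature with inhibitor and 1.38 μM PIP2 (10 mM MgCl2, 5 mM DTT), then 30 min after adding 400 μM ATP stock. PIP3 formation detected by HTRF (665/620 nm); % inhibition versus blank and enzyme controls gives IC50.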

Data set [2] concerns the target P110γ (Homo sapiens, UniProt P48736). Description: Fluorescent (HTRF) determination of PI3K enzyme activity, γ isoform. In kind it is biochemical. The text has this: Assay 1: Fluorescent determination of PI3Kinase Kinase enzyme activity
Phosphoinositide 3 kinases (PI3K) belong to a class of lipid kinases that play a critical role in the regulation of several key cellular processes. The PI3K are capable of phosphorylating the 3-hydroxy position of phosphoinositols thereby generating second messengers involved in downstream signalling events. The homogenous time resolved fluorescence (HTRF) assay allows detection of 3,4,5-triphosphate (PIP3) formed as a result of phosphorylation of phosphotidylinositol 4,5-biphosphate (PIP2) by PI3K isoforms such as α, β, γ or δ.
PI3K isoform activity for α, β, γ or δ was determined using a PI3K human HTRF™ Assay Kit (Millipore, Billerica, Mass.) with modifications. All incubations were carried out at room temperature. Briefly, 0.5 μl of 40× inhibitor (in 100% DMSO) or 100% DMSO were added to each well of a 384-well black plate (Greiner Bio-One, Monroe, N.C.) containing 14.5 μl 1× reaction buffer/PIP2 (10 mM MgCl2, 5 mM DTT, 1.38 μM PIP2) mix with or without enzyme and incubated for 10 min. After the initial incubation, 5 μl/well of 400 μM ATP was added and incubated for an additional 30 minutes. Reaction was terminated by adding 5 μl/well stop solution (Millipore, Billerica, Mass.). Five microliters of detection mix (Millipore, Billerica, Mass.) were then added to each well and was incubated for 6-18 h in the dark. HRTF ratio was measured on a microplate reader (BMG Labtech., Germany) at an excitation wavelength of 337 nm and emission wavelengths of 665 and 620 nm with an integration time of […]. Data were analyzed using Graphpad Prism (Graphpad software; San Diego Calif.) for IC50 determination. Percent inhibition was calculated based on the values for the blank and enzyme controls. The results are provided below in Table 2 & 3.

Data set [3] has as its target P110β (Homo sapiens, UniProt P42338). Description: Fluorescent (HTRF) determination of PI3K enzyme activity, β isoform. It counts as biochemical. Summed up:
as §1

Data set [4] concerns the target P110 δ/Pi3K δ (Homo sapiens, UniProt O00329). As to the kind of experiment: Fluorescent (HTRF) determination of PI3K enzyme activity, δ isoform. It counts as biochemical. The gist of the method:
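HTRF kit detecting PIP3 formed from PIP2 by human PI3Kδ, at room temperature. Reaction started with 400 μM ATP (addition concentration) for 30 min, then stopped, and detection mix incubated 6–18 h in the dark. Percent inhibition taken against blank and enzyme controls, and IC50 fitted.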

P110 δ/Pi3K δ, sequence (O00329 whole entry, canonical isoform): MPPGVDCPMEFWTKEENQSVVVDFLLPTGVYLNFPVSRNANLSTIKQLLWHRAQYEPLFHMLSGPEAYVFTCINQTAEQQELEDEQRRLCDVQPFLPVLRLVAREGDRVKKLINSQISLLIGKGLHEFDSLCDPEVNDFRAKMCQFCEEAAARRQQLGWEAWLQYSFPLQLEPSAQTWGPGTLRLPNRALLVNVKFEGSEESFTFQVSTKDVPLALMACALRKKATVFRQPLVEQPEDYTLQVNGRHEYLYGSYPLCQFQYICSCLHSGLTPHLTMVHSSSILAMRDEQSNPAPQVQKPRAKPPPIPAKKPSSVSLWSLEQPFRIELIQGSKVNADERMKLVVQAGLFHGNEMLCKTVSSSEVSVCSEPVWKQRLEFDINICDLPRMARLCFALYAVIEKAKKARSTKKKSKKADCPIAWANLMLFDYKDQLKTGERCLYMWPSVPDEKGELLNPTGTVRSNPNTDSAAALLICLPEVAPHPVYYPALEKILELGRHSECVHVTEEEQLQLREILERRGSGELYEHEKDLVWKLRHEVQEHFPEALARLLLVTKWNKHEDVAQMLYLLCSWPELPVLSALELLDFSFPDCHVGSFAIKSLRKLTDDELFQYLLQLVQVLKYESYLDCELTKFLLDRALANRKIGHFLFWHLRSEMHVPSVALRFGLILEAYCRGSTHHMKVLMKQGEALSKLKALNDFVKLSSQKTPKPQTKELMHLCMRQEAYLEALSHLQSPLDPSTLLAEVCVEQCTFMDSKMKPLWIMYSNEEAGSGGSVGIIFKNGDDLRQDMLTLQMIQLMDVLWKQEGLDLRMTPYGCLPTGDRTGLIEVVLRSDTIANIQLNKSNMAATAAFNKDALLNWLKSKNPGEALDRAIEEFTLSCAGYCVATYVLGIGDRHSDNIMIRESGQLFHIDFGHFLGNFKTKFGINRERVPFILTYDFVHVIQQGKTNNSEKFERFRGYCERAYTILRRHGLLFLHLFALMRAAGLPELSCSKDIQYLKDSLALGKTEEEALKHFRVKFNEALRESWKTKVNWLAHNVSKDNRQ
P110 δ/Pi3K δ, sequence (P27986 whole entry partner, canonical isoform): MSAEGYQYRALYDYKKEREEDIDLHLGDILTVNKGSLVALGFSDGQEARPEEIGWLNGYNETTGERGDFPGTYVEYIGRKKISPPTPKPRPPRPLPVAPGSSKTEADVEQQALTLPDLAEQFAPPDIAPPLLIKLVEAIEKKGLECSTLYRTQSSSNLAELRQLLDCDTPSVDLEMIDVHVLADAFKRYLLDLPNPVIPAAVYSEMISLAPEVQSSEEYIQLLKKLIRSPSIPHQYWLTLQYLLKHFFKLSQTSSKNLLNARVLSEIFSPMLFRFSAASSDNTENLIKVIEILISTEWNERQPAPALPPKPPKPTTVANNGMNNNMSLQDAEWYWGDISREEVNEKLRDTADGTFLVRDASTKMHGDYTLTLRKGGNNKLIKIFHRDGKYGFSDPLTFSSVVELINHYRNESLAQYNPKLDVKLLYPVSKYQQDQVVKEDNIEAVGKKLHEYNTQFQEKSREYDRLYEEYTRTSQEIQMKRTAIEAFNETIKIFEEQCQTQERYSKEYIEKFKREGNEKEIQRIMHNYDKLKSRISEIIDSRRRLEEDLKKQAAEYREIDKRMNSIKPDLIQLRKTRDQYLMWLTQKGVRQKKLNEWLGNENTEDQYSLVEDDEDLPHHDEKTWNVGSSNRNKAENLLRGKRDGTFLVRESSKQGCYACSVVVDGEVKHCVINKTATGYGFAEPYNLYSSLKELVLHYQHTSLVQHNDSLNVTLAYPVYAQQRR
P110α, sequence (P42336 whole entry, canonical isoform): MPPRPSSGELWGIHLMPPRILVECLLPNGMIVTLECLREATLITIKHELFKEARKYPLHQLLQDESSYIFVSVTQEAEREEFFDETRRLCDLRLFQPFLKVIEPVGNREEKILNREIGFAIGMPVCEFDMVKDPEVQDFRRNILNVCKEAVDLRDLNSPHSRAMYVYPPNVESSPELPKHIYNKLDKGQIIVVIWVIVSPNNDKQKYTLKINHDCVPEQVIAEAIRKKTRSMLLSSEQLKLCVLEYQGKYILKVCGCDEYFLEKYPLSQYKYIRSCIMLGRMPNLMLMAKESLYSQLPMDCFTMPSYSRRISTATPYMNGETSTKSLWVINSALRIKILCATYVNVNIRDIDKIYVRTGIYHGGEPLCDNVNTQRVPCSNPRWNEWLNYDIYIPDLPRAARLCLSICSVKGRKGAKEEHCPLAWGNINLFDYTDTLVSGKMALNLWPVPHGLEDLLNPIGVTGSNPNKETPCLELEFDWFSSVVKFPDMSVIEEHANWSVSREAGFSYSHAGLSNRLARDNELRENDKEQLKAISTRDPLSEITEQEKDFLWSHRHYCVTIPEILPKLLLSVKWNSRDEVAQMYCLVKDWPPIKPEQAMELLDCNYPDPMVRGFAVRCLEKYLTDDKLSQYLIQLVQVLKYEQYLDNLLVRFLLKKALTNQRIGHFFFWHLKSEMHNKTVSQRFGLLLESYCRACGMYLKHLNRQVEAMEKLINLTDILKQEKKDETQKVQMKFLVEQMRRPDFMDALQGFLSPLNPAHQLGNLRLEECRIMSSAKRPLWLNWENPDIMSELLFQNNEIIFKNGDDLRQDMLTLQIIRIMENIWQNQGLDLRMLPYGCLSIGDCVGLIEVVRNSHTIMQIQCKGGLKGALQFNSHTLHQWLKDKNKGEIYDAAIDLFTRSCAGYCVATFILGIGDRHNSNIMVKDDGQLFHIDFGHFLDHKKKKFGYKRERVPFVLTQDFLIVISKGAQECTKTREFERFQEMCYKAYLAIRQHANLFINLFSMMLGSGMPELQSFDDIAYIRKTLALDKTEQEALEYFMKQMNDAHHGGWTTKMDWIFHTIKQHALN
P110α, sequence (P27986 whole entry partner, canonical isoform): as the sequence (P27986 whole entry partner, canonical isoform) above
P110γ, sequence (P48736 whole entry, canonical isoform): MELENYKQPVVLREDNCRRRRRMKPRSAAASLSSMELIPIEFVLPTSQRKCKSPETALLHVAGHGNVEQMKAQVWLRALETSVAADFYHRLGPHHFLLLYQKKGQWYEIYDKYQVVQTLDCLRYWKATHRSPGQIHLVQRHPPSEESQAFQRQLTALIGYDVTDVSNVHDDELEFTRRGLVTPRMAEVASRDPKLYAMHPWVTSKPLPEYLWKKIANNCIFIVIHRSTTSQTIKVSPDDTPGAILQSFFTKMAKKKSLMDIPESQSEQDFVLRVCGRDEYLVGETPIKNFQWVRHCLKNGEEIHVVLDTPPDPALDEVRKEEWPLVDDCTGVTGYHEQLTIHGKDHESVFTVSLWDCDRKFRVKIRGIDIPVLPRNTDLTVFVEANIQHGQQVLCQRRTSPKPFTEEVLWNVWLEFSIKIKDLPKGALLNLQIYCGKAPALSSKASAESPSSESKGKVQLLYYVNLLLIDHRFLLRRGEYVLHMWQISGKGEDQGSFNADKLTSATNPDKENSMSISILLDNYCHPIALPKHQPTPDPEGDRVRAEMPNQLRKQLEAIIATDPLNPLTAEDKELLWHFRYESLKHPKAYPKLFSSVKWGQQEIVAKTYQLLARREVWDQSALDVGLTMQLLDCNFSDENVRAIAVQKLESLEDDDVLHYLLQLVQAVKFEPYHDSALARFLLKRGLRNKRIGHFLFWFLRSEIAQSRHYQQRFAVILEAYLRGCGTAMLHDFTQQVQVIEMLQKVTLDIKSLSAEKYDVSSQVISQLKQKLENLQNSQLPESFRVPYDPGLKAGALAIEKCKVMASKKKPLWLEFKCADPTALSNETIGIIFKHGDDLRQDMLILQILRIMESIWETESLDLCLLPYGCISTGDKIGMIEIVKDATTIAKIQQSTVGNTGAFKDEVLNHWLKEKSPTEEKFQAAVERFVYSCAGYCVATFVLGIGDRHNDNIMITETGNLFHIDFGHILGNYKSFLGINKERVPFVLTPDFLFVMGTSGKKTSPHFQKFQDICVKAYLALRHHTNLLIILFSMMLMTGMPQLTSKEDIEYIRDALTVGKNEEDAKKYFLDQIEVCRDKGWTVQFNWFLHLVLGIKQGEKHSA
P110β, sequence (P42338 whole entry, canonical isoform): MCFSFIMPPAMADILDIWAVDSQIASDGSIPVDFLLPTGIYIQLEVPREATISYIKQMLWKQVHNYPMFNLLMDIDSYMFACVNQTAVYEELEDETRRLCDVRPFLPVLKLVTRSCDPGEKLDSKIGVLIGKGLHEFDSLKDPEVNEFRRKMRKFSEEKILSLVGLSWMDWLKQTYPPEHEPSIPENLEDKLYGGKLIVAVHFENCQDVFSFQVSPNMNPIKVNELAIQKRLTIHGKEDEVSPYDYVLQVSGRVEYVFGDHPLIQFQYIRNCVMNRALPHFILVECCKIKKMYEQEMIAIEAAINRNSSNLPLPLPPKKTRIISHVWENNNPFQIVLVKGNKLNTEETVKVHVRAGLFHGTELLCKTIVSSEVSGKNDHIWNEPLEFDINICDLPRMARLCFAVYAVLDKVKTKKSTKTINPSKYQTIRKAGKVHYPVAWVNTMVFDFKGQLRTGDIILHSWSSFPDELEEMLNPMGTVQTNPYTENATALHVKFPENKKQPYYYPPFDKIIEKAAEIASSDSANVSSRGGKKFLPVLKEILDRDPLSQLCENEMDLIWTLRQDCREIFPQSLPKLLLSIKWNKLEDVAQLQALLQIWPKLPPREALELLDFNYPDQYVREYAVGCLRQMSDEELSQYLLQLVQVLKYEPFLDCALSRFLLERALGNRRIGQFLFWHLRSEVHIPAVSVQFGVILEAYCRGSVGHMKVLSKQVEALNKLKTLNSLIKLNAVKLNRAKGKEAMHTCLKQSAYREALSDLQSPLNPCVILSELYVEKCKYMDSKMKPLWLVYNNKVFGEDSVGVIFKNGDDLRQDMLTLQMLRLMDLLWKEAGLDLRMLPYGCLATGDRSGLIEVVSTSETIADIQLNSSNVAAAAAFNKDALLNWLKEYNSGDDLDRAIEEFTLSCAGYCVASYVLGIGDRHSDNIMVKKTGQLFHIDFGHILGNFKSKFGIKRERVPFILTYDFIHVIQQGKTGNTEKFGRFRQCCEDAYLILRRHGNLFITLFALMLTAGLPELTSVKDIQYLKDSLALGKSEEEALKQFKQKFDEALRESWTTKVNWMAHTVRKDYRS
P110β, sequence (P27986 whole entry partner, canonical isoform): as the sequence (P27986 whole entry partner, canonical isoform) above

Compound `C[C@H](Nc1ncnc2[nH]cnc12)c1oc2ccccc2c(=O)c1-c1cccc(F)c1` [Example 47, (S)-2-(1-(9H-purin-6-ylamino)ethyl)-3-(3-fluorophenyl)-4H-chromen-4-one] had a melting point of 135 to 138 °C. In data set [1], the inhibition at 1 µM is under 25%. Besides, the inhibition at 1 µM in data set [2] was in the range of 25 to 50%. Further, the inhibition at 1 µM in data set [3] was 25 to 50%. In data set [4], this compound displayed an inhibition at 1 µM of 50 to 100%. Further, the IC50 in data set [4] (read-out: P110 δ/Pi3K δ IC 50 nM) is under 250 nM.
